Laboratory results reported in patent publication US11319328B2 (priority 2017, dated 2022).

Legend:
Experiment in all cases: cells
Type in all cases: cell-based
[1] = tested on: Hepatoma HepG2; conditions: cultured 48 h, MTT
Method: (§1) A cell strain: Hepatoma HepG2, cervical cancer Hela, lung cancer A549, breast cancer MCF7 cell line and human normal liver cell HL7702 were purchased from Wuhan Boster Biological Technology Co., Ltd.;
(§2) HepG2, Hela, A549, MCF 7 cells in logarithmic growth phase and human normal hepatocytes HL7702 were centrifuged at 1500 rpm for 5 min, and the supernatant was discarded; the cells were digested with a suitable amount of trypsin, and then suspended with a suitable amount of culture medium (HepG2, Hela and HL7702 cells were suspended with penicillin-streptomycin RPMI1640 culture medium containing 10% calf serum, A549 and MCF 7 cells with penicillin-streptomycin high glucose DMEM culture medium containing 10% calf serum, to adjust the cell concentration to 1.5×10^4 cells/well, the cells were seeded in 96-well plates, and the following experimental groups were set:
(§3) 0.10 mL of the cell suspension was added to each well, and incubated at 37° C., 5% CO2 and saturated humidity for 12 h, and the culture medium was discarded when the cell density was nearly 70%. […] 100 μl of 5 mg/ml MTT was added per well, standing for 4 h at 37° C. 100 μl of DMSO was added to each well, followed by shaking on a shaker for 10 min at 37° C., the absorbance (OD) was measured at 492 nm, and the MTT ratio was calculated as the OD value of drug group/OD value of negative control group.

[2] = tested on: breast cancer MCF7 cell line; conditions: cultured 48 h, MTT
Method: as §1, §2, §3

[3] = tested on: lung cancer A549; conditions: cultured 48 h, MTT
Method: as §1, §2, §3

[4] = tested on: human normal liver cell HL7702; conditions: human normal hepatocytes HL7702, cultured 48 h, MTT
Method: as §1, §2, §3

[5] = tested on: cervical cancer Hela; conditions: cultured 48 h, MTT
Method: as §1, §2, §3

4β-NH-(2-(5-amino-2-methylphenyl)-4-(3-pyridyl) pyrimidine)-4′-demethylepipodophyllotoxin [Compound 38]
IC50 [1]: 29.5 ± 3.2 µM
IC50 [2]: 14.5 ± 3.8 µM
IC50 [3]: 15.5 ± 2 µM
IC50 [4]: > 100 µM
IC50 [5]: 35.1 ± 5.9 µM

4β-NH-(6-indazolamine)-4′-demethylepipodophyllotoxin [Compound 32]
IC50 [1]: 19.4 ± 1.5 µM
IC50 [2]: 21.4 ± 5.9 µM
IC50 [3]: 25.6 ± 3.7 µM
IC50 [4]: 17.7 ± 2.2 µM
IC50 [5]: 6.4 ± 1.8 µM

4β-NH-(7-indazolamine)-4′-demethylepipodophyllotoxin [Compound 33]
IC50 [1]: 22.5 ± 2.6 µM
IC50 [2]: 16.4 ± 0.9 µM
IC50 [3]: 24.5 ± 5 µM
IC50 [4]: 29.8 ± 1.9 µM
IC50 [5]: 34 ± 1.1 µM

COc1cc(C2c3cc4c(cc3C(Nc3cccc5c3C(=O)c3ccccc3C5=O)C3COC(=O)C23)OCO4)cc(OC)c1OC (stereo not drawn) [Compound 1, 4β-NH-(1-aminoanthraquinone) podophyllotoxin]
IC50 [1]: 0.9 ± 0.05 µM
IC50 [2]: 0.7 ± 0.01 µM
IC50 [3]: 0.2 ± 0.01 µM
IC50 [4]: > 100 µM
IC50 [5]: 0.7 ± 0.1 µM

COc1cc(C2c3cc4c(cc3C(Nc3ccc5c(c3)C(=O)c3ccccc3C5=O)C3COC(=O)C23)OCO4)cc(OC)c1OC (stereo not drawn) [Compound 2, 4β-NH-(2-aminoanthraquinone) podophyllotoxin]
IC50 [1]: 9.6 ± 0.8 µM
IC50 [2]: 2.9 ± 0.1 µM
IC50 [3]: 2.9 ± 0.4 µM
IC50 [4]: > 100 µM
IC50 [5]: 2.5 ± 0.3 µM

COc1cc([C@@H]2c3cc4c(cc3[C@@H](Nc3ccc5c(c3N)C(=O)c3ccccc3C5=O)[C@@H]3COC(=O)[C@H]23)OCO4)cc(OC)c1OC [Compound 3, 4β-NH-(1,2-diaminoanthraquinone) podophyllotoxin]
IC50 [1]: 52 ± 8.4 µM
IC50 [2]: 17.5 ± 2.1 µM
IC50 [3]: > 100 µM
IC50 [4]: > 100 µM
IC50 [5]: 24.6 ± 3.2 µM

COc1cc(C2c3cc4c(cc3C(Nc3cccc5c3C(=O)c3cccc(N)c3C5=O)C3COC(=O)C23)OCO4)cc(OC)c1OC (stereo not drawn) [Compound 4, 4β-NH-(1,5-diaminoanthraquinone) podophyllotoxin]
IC50 [1]: 4.7 ± 0.4 µM
IC50 [2]: 3.4 ± 0.6 µM
IC50 [3]: 2.2 ± 0.3 µM
IC50 [4]: > 100 µM
IC50 [5]: 4.6 ± 0.2 µM

COc1cc([C@@H]2c3cc4c(cc3[C@@H](Nc3ccc5c(c3)C(=O)c3ccc(N)cc3C5=O)[C@@H]3COC(=O)[C@H]23)OCO4)cc(OC)c1OC [Compound 5, 4β-NH-(2,6-diaminoanthraquinone) podophyllotoxin]
IC50 [1]: 9.1 ± 1.2 µM
IC50 [2]: > 100 µM
IC50 [3]: > 100 µM
IC50 [4]: > 100 µM
IC50 [5]: 6.5 ± 0.5 µM

COc1cc([C@@H]2c3cc4c(cc3[C@@H](Nc3nc(N)nc5ccccc35)[C@@H]3COC(=O)[C@H]23)OCO4)cc(OC)c1OC [Compound 6, 4β-NH-(2,4-quinazolinediamine) podophyllotoxin]
IC50 [1]: > 100 µM
IC50 [2]: 24.5 ± 4.4 µM
IC50 [3]: 14.3 ± 2.3 µM
IC50 [4]: 13.8 ± 1.9 µM
IC50 [5]: 19.2 ± 1.9 µM

COc1cc(C2c3cc4c(cc3C(Nc3ccc5ncccc5c3)C3COC(=O)C23)OCO4)cc(OC)c1OC (stereo not drawn) [Compound 7, 4β-NH-(6-aminoquinoline) podophyllotoxin]
IC50 [1]: 0.8 ± 0.01 µM
IC50 [2]: 0.6 ± 0.03 µM
IC50 [3]: 0.3 ± 0.04 µM
IC50 [4]: > 100 µM
IC50 [5]: 0.7 ± 0.03 µM

COc1cc([C@@H]2c3cc4c(cc3[C@@H](Nc3cccc5ncccc35)[C@@H]3COC(=O)[C@H]23)OCO4)cc(OC)c1OC [Compound 8, 4β-NH-(5-aminoquinoline) podophyllotoxin]
IC50 [1]: > 100 µM
IC50 [2]: > 100 µM
IC50 [3]: > 100 µM
IC50 [4]: > 100 µM
IC50 [5]: > 100 µM

COc1cc(C2c3cc4c(cc3C(Nc3cccc5cnccc35)C3COC(=O)C23)OCO4)cc(OC)c1OC (stereo not drawn) [Compound 9, 4β-NH-(5-aminoisoquinoline) podophyllotoxin]
IC50 [1]: 4.1 ± 1.1 µM
IC50 [2]: 1.4 ± 0.3 µM
IC50 [3]: 2.3 ± 0.1 µM
IC50 [4]: 16.3 ± 2.8 µM
IC50 [5]: 3.1 ± 0.2 µM

COc1cc([C@@H]2c3cc4c(cc3[C@@H](Nc3cccc5cccnc35)[C@@H]3COC(=O)[C@H]23)OCO4)cc(OC)c1OC [Compound 10, 4β-NH-(8-aminoquinoline) podophyllotoxin]
IC50 [1]: 4.6 ± 0.4 µM
IC50 [2]: 1 ± 0.1 µM
IC50 [3]: 1.2 ± 0.2 µM
IC50 [4]: 37 ± 4.8 µM
IC50 [5]: 2.7 ± 0.3 µM

COc1cc([C@@H]2c3cc4c(cc3[C@@H](Nc3cccc5ccc(C)nc35)[C@@H]3COC(=O)[C@H]23)OCO4)cc(OC)c1OC [Compound 11, 4β-NH-(8-aminoquinaldine) podophyllotoxin]
IC50 [1]: 1.6 ± 0.1 µM
IC50 [2]: 1 ± 0.2 µM
IC50 [3]: 3 ± 0.4 µM
IC50 [4]: > 100 µM
IC50 [5]: 1.5 ± 0.1 µM

COc1cc(C2c3cc4c(cc3C(Nc3ccc5[nH]ncc5c3)C3COC(=O)C23)OCO4)cc(OC)c1OC (stereo not drawn) [Compound 12, 4β-NH-(5-indazolamine) podophyllotoxin]
IC50 [1]: 0.3 ± 0.02 µM
IC50 [2]: 0.4 ± 0.03 µM
IC50 [3]: 0.2 ± 0.02 µM
IC50 [4]: 50 µM
IC50 [5]: 0.5 ± 0.01 µM

COc1cc(C2c3cc4c(cc3C(Nc3ccc5cn[nH]c5c3)C3COC(=O)C23)OCO4)cc(OC)c1OC (stereo not drawn) [Compound 13, 4β-NH-(6-indazolamine) podophyllotoxin]
IC50 [1]: 1.8 ± 0.2 µM
IC50 [2]: 1.3 ± 0.2 µM
IC50 [3]: 2.4 ± 0.2 µM
IC50 [4]: 33.6 ± 1.5 µM
IC50 [5]: 2.1 ± 0.3 µM

COc1cc([C@@H]2c3cc4c(cc3[C@@H](Nc3cccc5cn[nH]c35)[C@@H]3COC(=O)[C@H]23)OCO4)cc(OC)c1OC [Compound 14, 4β-NH-(7-indazolamine) podophyllotoxin]
IC50 [1]: 0.9 ± 0.1 µM
IC50 [2]: 0.4 ± 0.01 µM
IC50 [3]: 0.5 ± 0.01 µM
IC50 [4]: 43.3 ± 2.8 µM
IC50 [5]: 0.9 ± 0.01 µM

COc1cc(C2c3cc4c(cc3C(Nc3ccc5[nH]ccc5c3)C3COC(=O)C23)OCO4)cc(OC)c1OC (stereo not drawn) [Compound 15, 4β-NH-(5-aminoindole) podophyllotoxin]
IC50 [1]: 2.5 ± 0.6 µM
IC50 [2]: 4.8 ± 0.9 µM
IC50 [3]: 2.2 ± 0.9 µM
IC50 [4]: 30.5 ± 2.7 µM
IC50 [5]: 3.8 ± 0.2 µM

COc1cc(C2c3cc4c(cc3C(Nc3ccc5cc[nH]c5c3)C3COC(=O)C23)OCO4)cc(OC)c1OC (stereo not drawn) [Compound 16, 4β-NH-(6-aminoindole) podophyllotoxin]
IC50 [1]: 0.6 ± 0.01 µM
IC50 [2]: 0.3 ± 0.01 µM
IC50 [3]: 0.2 ± 0.02 µM
IC50 [4]: 140 µM
IC50 [5]: 0.4 ± 0.01 µM

COc1cc([C@@H]2c3cc4c(cc3[C@@H](Nc3cccc5cc[nH]c35)[C@@H]3COC(=O)[C@H]23)OCO4)cc(OC)c1OC [Compound 17, 4β-NH-(7-aminoindole) podophyllotoxin]
IC50 [1]: 1.9 ± 0.2 µM
IC50 [2]: 0.8 ± 0.1 µM
IC50 [3]: 1 ± 0.1 µM
IC50 [4]: 38.4 ± 2.6 µM
IC50 [5]: 0.8 ± 0.1 µM

COc1cc(C2c3cc4c(cc3C(Nc3ccccc3-c3nc5ccccc5[nH]3)C3COC(=O)C23)OCO4)cc(OC)c1OC (stereo not drawn) [Compound 18, 4β-NH-(2-(2-aminophenyl)benzimidazole)-podophyllotoxin]
IC50 [1]: 3.6 ± 0.3 µM
IC50 [2]: 1.7 ± 0.2 µM
IC50 [3]: 2.8 ± 0.1 µM
IC50 [4]: > 100 µM
IC50 [5]: 4.8 ± 0.2 µM

COc1cc([C@@H]2c3cc4c(cc3[C@@H](Nc3ccc(C)c(-c5nccc(-c6cccnc6)n5)c3)[C@@H]3COC(=O)[C@H]23)OCO4)cc(OC)c1OC [Compound 19, 4β-NH-(2-(5-amino-2-methylphenyl)-4-(3-pyridyl)pyrimidine)-podophyllotoxin]
IC50 [1]: 6.6 ± 0.1 µM
IC50 [2]: 9.5 ± 0.8 µM
IC50 [3]: 7.7 ± 0.6 µM
IC50 [4]: > 100 µM
IC50 [5]: 4.8 ± 0.4 µM

COc1cc(C2c3cc4c(cc3C(Nc3cccc5c3C(=O)c3ccccc3C5=O)C3COC(=O)C23)OCO4)cc(OC)c1O (stereo not drawn) [Compound 20, 4β-NH-(1-aminoanthraquinone)-4′-demethylepipodophyllotoxin]
IC50 [1]: 8.8 ± 2.1 µM
IC50 [2]: 2.3 ± 0.1 µM
IC50 [3]: 1.8 ± 0.2 µM
IC50 [4]: 53.7 ± 5.3 µM
IC50 [5]: 8.5 ± 2.1 µM

COc1cc([C@@H]2c3cc4c(cc3[C@@H](Nc3ccc5c(c3)C(=O)c3ccccc3C5=O)[C@@H]3COC(=O)[C@H]23)OCO4)cc(OC)c1O [Compound 21, 4β-NH-(2-aminoanthraquinone)-4′-demethylepipodophyllotoxin]
IC50 [1]: 1.1 ± 0.4 µM
IC50 [2]: 4 ± 0.5 µM
IC50 [3]: > 100 µM
IC50 [4]: 55.4 ± 6.2 µM
IC50 [5]: 1.9 ± 0.3 µM

COc1cc(C2c3cc4c(cc3C(Nc3ccc5c(c3N)C(=O)c3ccccc3C5=O)C3COC(=O)C23)OCO4)cc(OC)c1O (stereo not drawn) [Compound 22, 4β-NH-(1,2-diaminoanthraquinone)-4′-demethylepipodophyllotoxin]
IC50 [1]: > 100 µM
IC50 [2]: 18.1 ± 2.8 µM
IC50 [3]: > 100 µM
IC50 [4]: > 100 µM
IC50 [5]: > 100 µM

COc1cc([C@@H]2c3cc4c(cc3[C@@H](Nc3cccc5c3C(=O)c3cccc(N)c3C5=O)[C@@H]3COC(=O)[C@H]23)OCO4)cc(OC)c1O [Compound 23, 4β-NH-(1,5-diaminoanthraquinone)-4′-demethylepipodophyllotoxin]
IC50 [1]: > 100 µM
IC50 [2]: > 100 µM
IC50 [3]: > 100 µM
IC50 [4]: > 100 µM
IC50 [5]: > 100 µM

COc1cc(C2c3cc4c(cc3C(Nc3ccc5c(c3)C(=O)c3ccc(N)cc3C5=O)C3COC(=O)C23)OCO4)cc(OC)c1O (stereo not drawn) [Compound 24, 4β-NH-(2,6-diaminoanthraquinone)-4′-demethylepipodophyllotoxin]
IC50 [1]: > 100 µM
IC50 [2]: 4.2 ± 1.1 µM
IC50 [3]: > 100 µM
IC50 [4]: > 100 µM
IC50 [5]: > 100 µM
